# Legend:
# [1] = molecular target: VirF (Shigella flexneri, UniProt P0A2T1); assay: Shigella virB-lacZ reporter gene assay; type: cell-based, S. flexneri; parameters: endogenously expressed VirF in a Shigella strain carrying a virB-lacZ reporter construct; endogenous in cells; host or cells: S. flexneri strain BS536 (virB-lacZ)
# Experimental: Colonies of S. flexneri strain BS536 that were red on TSA plates containing Congo red were grown overnight in Luria-Bertani broth at 30° C. to maintain low basal expression from the virB promoter. The overnight grown cultures were diluted 1:100 into 10 ml of the same medium with either 0.3% DMSO or different concentrations of SE-1 dissolved in DMSO (final concentration 0.3% DMSO). Cultures were grown at 37° C. in a shaking incubator to an OD600 of ˜0.4, centrifuged to pellet the cells and then resuspended in Z buffer for a two-fold concentration of the cells. Control cultures were grown at 30° C., a temperature at which virF expression is not induced (37), to illustrate the basal level of expression from the virB promoter region. β-Galactosidase assays were performed, with incubation with the substrate o-nitrophenyl-β-D-galactopyranoside (ONPG) was at room temperature. Activities are presented as a percentage of the uninhibited, DMSO-only control sample. Three independent assays were performed with two replicates in each assay.
# [2] = tested on: L-929 cells; assay: AlamarBlue metabolic activity / viability assay; type: cell-based, mouse
# Experimental: AlamarBlue® assays were performed as a control to test whether SE-1 had any impact on the metabolic activity of the host cells, as follows: L-929 cells were seeded into 96-well plates and grown overnight to ˜90% confluency. SE-1 was serially diluted in RPMI supplemented with 10 μg/ml gentamycin and 5% FBS, added to the wells, and incubated at 37° C. for 3 h. Cells were washed with 200 μl Hank's buffered salt solution (Mediatech) and incubated with 200 μl RPMI (without phenol red) containing 10% AlamarBlue® (also known as Resazurin, Invitrogen, Grand Island, N.Y.). Following 8 h incubation at 37° C., the absorbance was measured at 570 nm and 600 nm using a PowerWave XS plate reader, and the metabolic activity of the cells (as a percentage of untreated controls) was calculated using the following formula provided by the manufacturer: (117,216×A570−80,586×A600)/(117,216×A′570−80,586×A′600)×100, where A is the absorbance of test wells, and A′ is the absorbance of positive control wells (mock-infection).
# [3] = tested on: LacI-repressed hts-lacZ fusion; assay: LacI-repressed hts-lacZ control reporter fusion (β-galactosidase); type: cell-based, E. coli; settings: hts-lacZ control (SME3359)
# Source text: The control strain for the secondary high-throughput screen and subsequent experiments was SME3359, and carries the LacI-repressed fusion and LacI-expressing pHG165lacI. The fusion consists of lacZ under the control of an artificial promoter (Phts) with an induced expression level similar to that of the induced rhaBAD operon. Phts is regulated by Lad and induced with IPTG. The Phts core promoter elements include a near-consensus −35 sequence and a −10 sequence followed by a lacO1 operator sequence that overlaps the transcription start site with the same spacing as lacO1 at lacZYA. To construct the upstream half of Phts, oligo 2829 was annealed to oligo 2788 and the primers were extended using the Expand High Fidelity PCR System (Roche Applied Science, Indianapolis, Ind.). The downstream half of the Phts promoter was constructed by similarly annealing and extending oligos 2789 and 2790.
# The top hit identified in the screen was 1-ethyl-4-(nitromethyl)-3-quinolin-2-yl-4H-quinoline, Compound 2. […] Lysis/ONPG buffer (50 μL, as in Primary Screen) was added to each well and the plate was immediately placed into a PowerWave XS plate reader (BioTek Instruments, Inc., Winooski, Vt.), set to read the OD420 of each well every 15 min for 4 hr. […] Due to differences in kinetics of lacZ reporter expression, the rhaB-lacZ strains were analyzed at 4 hours and the hts-lacZ strain was analyzed at 1 hr. Percent activity was calculated for each condition as described above, using the single time point with appropriate OD420 levels for each strain. […] IC50 and maximal inhibition values were calculated using the XLfit add-in for Microsoft Excel (ID Business Solutions, Guildford, UK), and graphs were drawn using Prism (GraphPad, La Jolla, Calif.).
# In vivo dose-response assays were performed using a procedure described previously. […] Bacterial cultures were mixed with varying concentrations of SE-1 (2.2% DMSO, final), induced with 6.5 mM IPTG for 3 h at 37° C., lysed and β-galactosidase activity was measured. […] IC50 values were calculated and graphs were drawn using Prism (GraphPad, La Jolla, Calif.).
# VirF, sequence (P0A2T1 whole entry): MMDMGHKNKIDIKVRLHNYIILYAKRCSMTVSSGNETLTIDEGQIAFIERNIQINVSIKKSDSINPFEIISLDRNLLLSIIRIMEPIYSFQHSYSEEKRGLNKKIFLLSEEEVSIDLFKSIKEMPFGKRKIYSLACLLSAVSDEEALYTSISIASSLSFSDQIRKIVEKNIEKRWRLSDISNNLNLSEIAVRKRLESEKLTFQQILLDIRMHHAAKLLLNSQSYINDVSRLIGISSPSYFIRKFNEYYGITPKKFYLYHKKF
smiles,measurement,setting,value
"CCCCN1C=C(c2ccc3ccccc3n2)C(C[N+](=O)[O-])c2ccccc21 (stereo not drawn) [Compound 1, 1-butyl-4-(nitromethyl)-3-quinolin-2-yl-4H-quinoline]",IC50,[1],~30 µM
same,maximum inhibition of virB-lacZ expression,[1]; 40 μM SE-1,greater than two fold
same,host cell viability,[2]; 40 μM SE-1,no effect
same,viability of L-929 cells,[2]; 0.2 and 0.4 μM SE-1,did not detectably decrease the viability
same,inhibition of the LacI-repressed fusion,[3],small amount of non-specific inhibition
same,inhibition of the LacI-repressed fusion,[3]; listed as SE-1,some non-specific inhibition

# Reference: patent US20140088144A1, “INHIBITING MICROBIAL INFECTIONS” (THE UNIVERSITY OF KANSAS, priority 2012, published 2014)
